In PubChem BioAssay AID1963850 (Molecular Pharmacology Branch, DTP, NCI, 2024):

Tested on: 192522-019-R-J2-PDC complex tumor spheroid viability
Experiment: Anticancer human tumor 192522-019-R-J2-PDC patient-derived colon adenocarcinoma cell line growth inhibition [POLQ]
Details: for IC50: curve of first compound; for viability, T/C: stronger effect = lower value
How it was run: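 Patient-derived tumour cells were co-cultured with HUVEC and mesenchymal stem cells as multicellular spheroids at 37 °C. They were treated with POLQ inhibitors (novobiocin, ART-558, RP6685) alone or combined with other agents. Top concentrations were at or near clinical Cmax (otherwise 10 microM; SN-38 at 1 microM), decreasing in half-log steps.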

[1] = second compound 0.0316 µM, first compound 0.0316 µM
[2] = second compound 0.0316 µM, first compound 0.1 µM
[3] = second compound 0.1 µM, first compound 0.0316 µM
[4] = second compound 0.1 µM, first compound 0.1 µM
[5] = second compound 0.316 µM, first compound 0.0316 µM
[6] = second compound 0.316 µM, first compound 0.1 µM
[7] = second compound 1 µM, first compound 0.0316 µM
[8] = second compound 1 µM, first compound 0.1 µM
[9] = second compound 3.16 µM, first compound 0.0316 µM
[10] = second compound 3.16 µM, first compound 0.1 µM
[11] = second compound 10 µM, first compound 0.0316 µM
[12] = second compound 10 µM, first compound 0.1 µM
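Further: spheroids exposed to drugs for seven days before reading.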
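Wherever viability, T/C is given: 100% = DMSO vehicle control viability in luminescence.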

For `Cn1ncnc1[C@H]1c2n[nH]c(=O)c3cc(F)cc(c23)N[C@@H]1c1ccc(F)cc1` + COC1C(OC(N)=O)C(O)C(Oc2ccc3c(O)c(NC(=O)c4ccc(O)c(CC=C(C)C)c4)c(=O)oc3c2C)OC1(C)C, the IC50 (second compound 0.0316 µM) was > 0.1 µM, the IC50 (second compound 0.1 µM) was > 0.1 µM and the IC50 (second compound 0.316 µM) was > 0.1 µM. For the same compound, the IC50 (second compound 1 µM) was > 0.1 µM, the IC50 (second compound 3.16 µM) was > 0.1 µM and the IC50 (second compound 10 µM) was > 0.1 µM. The viability, T/C (second compound 0.0316 µM, first compound 0.000316 µM) was 118%, the viability, T/C (second compound 0.0316 µM, first compound 0.001 µM) was 91.9% and the viability, T/C (second compound 0.0316 µM, first compound 0.00316 µM) was 95.2%. The viability, T/C (second compound 0.0316 µM, first compound 0.01 µM) was 96.6%, the viability, T/C [1] was 102% and the viability, T/C [2] was 91.4%. It also gave a viability, T/C (second compound 0.1 µM, first compound 0.000316 µM) of 103%, a viability, T/C (second compound 0.1 µM, first compound 0.001 µM) of 100% and a viability, T/C (second compound 0.1 µM, first compound 0.00316 µM) of 103%. For the same compound, the viability, T/C (second compound 0.1 µM, first compound 0.01 µM) was 103%, the viability, T/C [3] was 100% and the viability, T/C [4] was 97.2%. The viability, T/C (second compound 0.316 µM, first compound 0.000316 µM) was 99.9%, the viability, T/C (second compound 0.316 µM, first compound 0.001 µM) was 99.2% and the viability, T/C (second compound 0.316 µM, first compound 0.00316 µM) was 99.4%. It also gave a viability, T/C (second compound 0.316 µM, first compound 0.01 µM) of 97.4%, a viability, T/C [5] of 93.8% and a viability, T/C [6] of 87.2%. It also gave a viability, T/C (second compound 1 µM, first compound 0.000316 µM) of 98.8%, a viability, T/C (second compound 1 µM, first compound 0.001 µM) of 95.6% and a viability, T/C (second compound 1 µM, first compound 0.00316 µM) of 101%. It also gave a viability, T/C (second compound 1 µM, first compound 0.01 µM) of 99.2%, a viability, T/C [7] of 86.5% and a viability, T/C [8] of 95.1%. It also gave a viability, T/C (second compound 3.16 µM, first compound 0.000316 µM) of 110%, a viability, T/C (second compound 3.16 µM, first compound 0.001 µM) of 98.8% and a viability, T/C (second compound 3.16 µM, first compound 0.00316 µM) of 108%. The viability, T/C (second compound 3.16 µM, first compound 0.01 µM) was 98.1%, the viability, T/C [9] was 95.8% and the viability, T/C [10] was 90.5%. For the same compound, the viability, T/C (second compound 10 µM, first compound 0.000316 µM) was 108%, the viability, T/C (second compound 10 µM, first compound 0.001 µM) was 89.8% and the viability, T/C (second compound 10 µM, first compound 0.00316 µM) was 96.4%. It also gave a viability, T/C (second compound 10 µM, first compound 0.01 µM) of 102%, a viability, T/C [11] of 107% and a viability, T/C [12] of 94.4%.

`CC(=O)O[C@H]1C(=O)[C@@]2(C)[C@H]([C@H](OC(=O)c3ccccc3)[C@]3(O)C[C@H](OC(=O)[C@H](O)[C@@H](NC(=O)c4ccccc4)c4ccccc4)C(C)=C1C3(C)C)[C@]1(OC(C)=O)CO[C@@H]1C[C@@H]2O` + COC1C(OC(N)=O)C(O)C(Oc2ccc3c(O)c(NC(=O)c4ccc(O)c(CC=C(C)C)c4)c(=O)oc3c2C)OC1(C)C was tested, and the IC50 (second compound 0.0316 µM) was > 3 µM, the IC50 (second compound 0.1 µM) was > 3 µM and the IC50 (second compound 0.316 µM) was > 3 µM. The IC50 (second compound 1 µM) was > 3 µM, the IC50 (second compound 3.16 µM) was > 3 µM and the IC50 (second compound 10 µM) was > 3 µM. For the same compound, the viability, T/C (second compound 0.0316 µM, first compound 0.00949 µM) was 94.2%, the viability, T/C (second compound 0.0316 µM, first compound 0.03 µM) was 72.8% and the viability, T/C (second compound 0.0316 µM, first compound 0.0949 µM) was 56.6%. The viability, T/C (second compound 0.0316 µM, first compound 0.3 µM) was 55.9%, the viability, T/C (second compound 0.0316 µM, first compound 0.949 µM) was 55.2% and the viability, T/C (second compound 0.0316 µM, first compound 3 µM) was 48.5%. The viability, T/C (second compound 0.1 µM, first compound 0.00949 µM) was 95.6%, the viability, T/C (second compound 0.1 µM, first compound 0.03 µM) was 74.7% and the viability, T/C (second compound 0.1 µM, first compound 0.0949 µM) was 59.5%. It also gave a viability, T/C (second compound 0.1 µM, first compound 0.3 µM) of 54.7%, a viability, T/C (second compound 0.1 µM, first compound 0.949 µM) of 51.6% and a viability, T/C (second compound 0.1 µM, first compound 3 µM) of 56.9%. For the same compound, the viability, T/C (second compound 0.316 µM, first compound 0.00949 µM) was 91.6%, the viability, T/C (second compound 0.316 µM, first compound 0.03 µM) was 78.1% and the viability, T/C (second compound 0.316 µM, first compound 0.0949 µM) was 59.6%. It also gave a viability, T/C (second compound 0.316 µM, first compound 0.3 µM) of 61.9%, a viability, T/C (second compound 0.316 µM, first compound 0.949 µM) of 54.6% and a viability, T/C (second compound 0.316 µM, first compound 3 µM) of 52.4%. The viability, T/C (second compound 1 µM, first compound 0.00949 µM) was 102%, the viability, T/C (second compound 1 µM, first compound 0.03 µM) was 80.6% and the viability, T/C (second compound 1 µM, first compound 0.0949 µM) was 56.6%. It also gave a viability, T/C (second compound 1 µM, first compound 0.3 µM) of 52.7%, a viability, T/C (second compound 1 µM, first compound 0.949 µM) of 56.1% and a viability, T/C (second compound 1 µM, first compound 3 µM) of 54%. The viability, T/C (second compound 3.16 µM, first compound 0.00949 µM) was 99.1%, the viability, T/C (second compound 3.16 µM, first compound 0.03 µM) was 84.6% and the viability, T/C (second compound 3.16 µM, first compound 0.0949 µM) was 61.5%. It also gave a viability, T/C (second compound 3.16 µM, first compound 0.3 µM) of 55.8%, a viability, T/C (second compound 3.16 µM, first compound 0.949 µM) of 56.1% and a viability, T/C (second compound 3.16 µM, first compound 3 µM) of 59.7%. The viability, T/C (second compound 10 µM, first compound 0.00949 µM) was 102%, the viability, T/C (second compound 10 µM, first compound 0.03 µM) was 76.8% and the viability, T/C (second compound 10 µM, first compound 0.0949 µM) was 57.1%. The viability, T/C (second compound 10 µM, first compound 0.3 µM) was 55.4%, the viability, T/C (second compound 10 µM, first compound 0.949 µM) was 64% and the viability, T/C (second compound 10 µM, first compound 3 µM) was 63.1%.

`C#Cc1c(F)ccc2cc(O)cc(-c3ncc4c(N5CC6CCC(C5)N6)nc(OCC56CCCN5CC(F)C6)nc4c3F)c12` (stereo unspecified) + COC1C(OC(N)=O)C(O)C(Oc2ccc3c(O)c(NC(=O)c4ccc(O)c(CC=C(C)C)c4)c(=O)oc3c2C)OC1(C)C was tested, and the IC50 (second compound 0.0316 µM) was > 10 µM, the IC50 (second compound 0.1 µM) was > 10 µM and the IC50 (second compound 0.316 µM) was > 10 µM. For the same compound, the IC50 (second compound 1 µM) was > 10 µM, the IC50 (second compound 3.16 µM) was > 10 µM and the IC50 (second compound 10 µM) was > 10 µM. It also gave a viability, T/C [1] of 97.7%, a viability, T/C [2] of 78.8% and a viability, T/C (second compound 0.0316 µM, first compound 0.316 µM) of 81.6%. The viability, T/C (second compound 0.0316 µM, first compound 1 µM) was 76.1%, the viability, T/C (second compound 0.0316 µM, first compound 3.16 µM) was 73.4% and the viability, T/C (second compound 0.0316 µM, first compound 10 µM) was 68%. The viability, T/C [3] was 98%, the viability, T/C [4] was 83.9% and the viability, T/C (second compound 0.1 µM, first compound 0.316 µM) was 86.5%. The viability, T/C (second compound 0.1 µM, first compound 1 µM) was 73.3%, the viability, T/C (second compound 0.1 µM, first compound 3.16 µM) was 70.2% and the viability, T/C (second compound 0.1 µM, first compound 10 µM) was 72.1%. It also gave a viability, T/C [5] of 98.7%, a viability, T/C [6] of 88.4% and a viability, T/C (second compound 0.316 µM, first compound 0.316 µM) of 82.9%. The viability, T/C (second compound 0.316 µM, first compound 1 µM) was 77.5%, the viability, T/C (second compound 0.316 µM, first compound 3.16 µM) was 78.9% and the viability, T/C (second compound 0.316 µM, first compound 10 µM) was 72.1%. It also gave a viability, T/C [7] of 94.8%, a viability, T/C [8] of 86.7% and a viability, T/C (second compound 1 µM, first compound 0.316 µM) of 80.1%. The viability, T/C (second compound 1 µM, first compound 1 µM) was 76.8%, the viability, T/C (second compound 1 µM, first compound 3.16 µM) was 73.2% and the viability, T/C (second compound 1 µM, first compound 10 µM) was 70.7%. It also gave a viability, T/C [9] of 95.1%, a viability, T/C [10] of 90.2% and a viability, T/C (second compound 3.16 µM, first compound 0.316 µM) of 82.3%. It also gave a viability, T/C (second compound 3.16 µM, first compound 1 µM) of 73.2%, a viability, T/C (second compound 3.16 µM, first compound 3.16 µM) of 75.9% and a viability, T/C (second compound 3.16 µM, first compound 10 µM) of 71.7%. For the same compound, the viability, T/C [11] was 95.2%, the viability, T/C [12] was 84.1% and the viability, T/C (second compound 10 µM, first compound 0.316 µM) was 79.6%. It also gave a viability, T/C (second compound 10 µM, first compound 1 µM) of 78.7%, a viability, T/C (second compound 10 µM, first compound 3.16 µM) of 74% and a viability, T/C (second compound 10 µM, first compound 10 µM) of 62.8%.
